From US20100035932A1, “NOVEL FORMYL PEPTIDE RECEPTOR LIKE 1 AGONISTS THAT INDUCE MACROPHAGE TUMOR NECROSIS FACTOR ALPHA AND COMPUTATIONAL STRUCTURE-ACTIVITY RELATIONSHIP ANALYSIS OF THEREOF” (priority 2008, published 2010)
Where two headings read alike, the source gives them in different places.

System: J774.A1 macrophages
Assay: TNF-α production in J774.A1 macrophages (ELISA)
Type: cell-based, murine
Conditions: for Determined class of macrophage TNF-α inducing activity: experimentally determined class; for fold induction at 50 µM: Mus musculus, J774.A1, 24 h
[1] = relative fold of activation compared to vehicle (DMSO) control for 50 μM compound, N.A. = no activity was observed, read-out: TNF-α production
[2] = 50 μM compound, above response to vehicle (DMSO) control, Table 5 numbering, N.A. = inactive, read-out: FI (fold-increase of macrophage TNF-α production)

Row | Molecule | Determined class of macrophage TNF-α inducing activity | further results
1 | 4-fluoro-benzoic acid [5-(3-trifluoromethyl-phenyl)-2-furyl]methylene-hydrazide [Compound 2] | Active | FI (fold-increase of macrophage TNF-α production) (50 μM compound, above response to vehicle (DMSO) control, Table 5 numbering, N.A. = inactive): 60 fold-increase
2 | CCOc1cc(/C=N\NC(=O)c2ccc3c(c2)OCO3)ccc1OC(=O)c1ccc(Br)cc1 [Compound 11] |  | fold induction at 50 µM [1]: < 5
3 | O=C(N/N=C/c1cc(Br)cc(Br)c1OC(=O)c1ccccc1)c1ccc2c(c1)OCO2 [Compound 12] |  | fold induction at 50 µM [1]: < 5
4 | O=C(N/N=C/c1ccc(-c2cccc(C(F)(F)F)c2)o1)c1cccc([N+](=O)[O-])c1 [Compound 13] |  | fold induction at 50 µM [1]: < 5
5 | O=C(N/N=C/c1ccc(-c2ccccc2Cl)o1)c1ccc(Cl)cc1Cl [Compound 14] |  | fold induction at 50 µM [1]: < 5
6 | O=C(N/N=C/c1ccc(-c2cccc(C(F)(F)F)c2)o1)c1cc(I)ccc1Cl [Compound 15] |  | fold induction at 50 µM [1]: < 5
7 | O=C(N/N=C/c1cc(Br)c(Br)o1)c1ccc2c(c1)OCO2 [Compound 16] |  | fold induction at 50 µM [1]: < 5
8 | Nc1ccc(C(=O)N/N=C/c2ccc(-c3ccc([N+](=O)[O-])cc3Cl)o2)cc1 [Compound 22] |  | fold induction at 50 µM [1]: < 2
9 | O=C(N/N=C/c1ccc([N+](=O)[O-])o1)c1cccc([N+](=O)[O-])c1 [Compound 23] |  | fold induction at 50 µM (read-out: TNF-α production): < 2
10 | O=C(N/N=C/c1ccc(-c2ccc(Cl)cc2Cl)o1)c1ccc2c(c1)OCO2 [Compound 24] |  | fold induction at 50 µM [1]: < 2
11 | Cc1ccc(-c2ccc(/C=N/NC(=O)c3ccncc3)o2)cc1Cl [Compound 51] | Active | fold induction at 50 µM [2]: 50
12 | O=C(N/N=C/c1ccc(-c2cccc(C(F)(F)F)c2)o1)c1ccc(Br)cc1 [Compound 52] | Active | fold induction at 50 µM [2]: 35
13 | CN(C)c1ccc(/C=N\NC(=O)c2ccc([N+](=O)[O-])cc2)cc1 [Compound 53] | Active | fold induction at 50 µM [2]: 25
14 | COc1cc(/C=N\NC(=O)c2ccc3c(c2)OCO3)ccc1OCc1ccccc1 [Compound 54] | Active | fold induction at 50 µM [2]: 7
15 | O=C(N/N=C/c1ccc(-c2ccc(Cl)c(Cl)c2)o1)c1ccc2c(c1)OCO2 [Compound 55] | Active | fold induction at 50 µM [2]: < 5
16 | CCOc1cc(/C=N\NC(=O)c2ccc3c(c2)OCO3)ccc1OC(=O)c1ccc(Br)cc1 [Compound 56] | Active | fold induction at 50 µM [2]: < 5
17 | COc1ccc(-c2ccc(/C=N/NC(=O)c3ccc([N+](=O)[O-])cc3)o2)cc1Cl [Compound 57] | Active | fold induction at 50 µM [2]: < 5
18 | O=C(N/N=C/c1cc(Br)c(Br)o1)c1ccc2c(c1)OCO2 [Compound 58] | Active | fold induction at 50 µM [2]: < 5
19 | O=C(/C=C/c1ccco1)Oc1cccc(/C=N/NC(=O)c2ccc3c(c2)OCO3)c1 [Compound 59] | NA (inactive derivatives were placed in the nonactive group labeled “NA”) | 
20 | COc1cc(/C=N\NC(=O)c2cccc(C)c2O)ccc1OCc1ccccc1 [Compound 60] | NA (inactive derivatives were placed in the nonactive group labeled “NA”) | 
21 | COc1ccc(C(=O)N/N=C\c2ccc(N(C)C)cc2)cc1 [Compound 61] | NA (inactive derivatives were placed in the nonactive group labeled “NA”) | 

Row | Molecule | Determined class of macrophage TNF-α inducing activity | further results
22 | O=C(N/N=C/c1cc(Br)cc(I)c1O)c1ccc2c(c1)OCCO2 [Compound 62] | NA (inactive derivatives were placed in the nonactive group labeled “NA”) | 
23 | O=C(N/N=C/c1cc(/N=N\c2cccc(C(F)(F)F)c2)ccc1O)c1ccc2c(c1)OCO2 [Compound 63] | NA (inactive derivatives were placed in the nonactive group labeled “NA”) | 
24 | O=C(N/N=C1\C(=O)N(Cc2cccc3ccccc23)c2ccccc21)c1ccc2c(c1)OCO2 [Compound 64] | NA (inactive derivatives were placed in the nonactive group labeled “NA”) | 
25 | O=C(N/N=C/c1cc(Br)c(Br)o1)c1ccc2c(c1)OCCO2 [Compound 65] | NA (inactive derivatives were placed in the nonactive group labeled “NA”) | 
26 | CN(C)c1ccc(/C=N\NC(=O)c2cccc(F)c2)cc1 [Compound 66] | NA (inactive derivatives were placed in the nonactive group labeled “NA”) | 
27 | CN(C)c1ccc(/C=N/NC(=O)c2ccc3c(c2)OCO3)cc1 [Compound 67] | NA (inactive derivatives were placed in the nonactive group labeled “NA”) | 
28 | O=C(N/N=C/c1c(O)ccc2ccccc12)c1ccc2c(c1)OCO2 [Compound 68] | NA (inactive derivatives were placed in the nonactive group labeled “NA”) | 
29 | COc1ccc(/C=N/NC(=O)c2ccc3c(c2)OCO3)c(OC)c1 [Compound 69] | NA (inactive derivatives were placed in the nonactive group labeled “NA”) | 
30 | COc1cc(/C=N\NC(=O)c2ccc3c(c2)OCO3)ccc1OC(=O)c1ccco1 [Compound 70] | NA (inactive derivatives were placed in the nonactive group labeled “NA”) | 
31 | O=C(/C=C\c1ccco1)Oc1ccc(/C=N\NC(=O)c2ccc3c(c2)OCO3)cc1 [Compound 71] | NA (inactive derivatives were placed in the nonactive group labeled “NA”) | 
32 | O=C(O)COc1ccccc1/C=N/NC(=O)c1ccc2c(c1)OCO2 [Compound 72] | NA (inactive derivatives were placed in the nonactive group labeled “NA”) | 
33 | CN(C)c1ccc(/C=N\NC(=O)c2ccccc2O)cc1 [Compound 73] | NA (inactive derivatives were placed in the nonactive group labeled “NA”) | 
34 | O=C(N/N=C/c1cc(/N=N\c2cccc3ccccc23)ccc1O)c1ccc2c(c1)OCO2 [Compound 74] | NA (inactive derivatives were placed in the nonactive group labeled “NA”) | 
35 | C/C(=N\NC(=O)c1ccc2c(c1)OCO2)c1cccc([N+](=O)[O-])c1 [Compound 75] | NA (inactive derivatives were placed in the nonactive group labeled “NA”) | 
36 | CC(C)N1C(=O)/C(=N\NC(=O)c2ccc3c(c2)OCO3)c2ccccc21 [Compound 76] | NA (inactive derivatives were placed in the nonactive group labeled “NA”) | 
37 | CCN1C(=O)/C(=N\NC(=O)c2ccc3c(c2)OCO3)c2ccccc21 [Compound 77] | NA (inactive derivatives were placed in the nonactive group labeled “NA”) | 
38 | COc1ccc(/C(C)=N/NC(=O)c2ccc3c(c2)OCCO3)cc1[N+](=O)[O-] [Compound 78] | NA (inactive derivatives were placed in the nonactive group labeled “NA”) | 
39 | COc1ccc(Cl)cc1/C=N/NC(=O)c1ccc2c(c1)OCCO2 [Compound 79] | NA (inactive derivatives were placed in the nonactive group labeled “NA”) | 
40 | CCOc1ncccc1C(=O)N/N=C/c1ccc([N+](=O)[O-])o1 [Compound 80] | NA (inactive derivatives were placed in the nonactive group labeled “NA”) | 
41 | O=C(N/N=C/c1ccco1)c1cccnc1 [Compound 81] | NA (inactive derivatives were placed in the nonactive group labeled “NA”) | 
